Patent US20130324522A1, “INSECT ODORANT RECEPTOR ANTAGONISTS” (THE ROCKEFELLER UNIVERSITY, priority 2010, published 2013)
Where two headings read alike, the source gives them in different places.

How the values were obtained:
Or47a/Or83b = molecular target: T1, Or47a/Or83b (Drosophila melanogaster, UniProt P81921+Q9VNB5); assay: Ca2+-imaging of stable Flip-In T-Rex cell line Or47a/Or83b; assay type: cell-based; conditions: for inhibition at 4 µM: compound applied at 4 μM, read-out: Percent Inhibition OR47a OR83b
T1 construct: Full-length cDNAs for mosquito (Anopheles gambiae) odorant receptor (OR1, OR2, OR7, OR8, OR28), and fly (Drosophila melanogaster) odorant receptor (Or47a, Or83b); expressed in transfected cells
T1 sequence (P81921 1-385): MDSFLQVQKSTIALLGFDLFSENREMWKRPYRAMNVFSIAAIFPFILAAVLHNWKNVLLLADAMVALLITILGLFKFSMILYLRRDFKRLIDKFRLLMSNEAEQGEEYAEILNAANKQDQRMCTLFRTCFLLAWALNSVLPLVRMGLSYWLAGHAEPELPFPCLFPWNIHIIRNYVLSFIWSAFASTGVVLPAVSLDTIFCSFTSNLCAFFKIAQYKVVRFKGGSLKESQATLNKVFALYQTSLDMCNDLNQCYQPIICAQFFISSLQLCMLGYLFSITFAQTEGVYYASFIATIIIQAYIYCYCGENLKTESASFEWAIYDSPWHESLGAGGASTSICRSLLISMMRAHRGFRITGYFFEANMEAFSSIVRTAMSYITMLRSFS
T1 sequence (Q9VNB5 1-486): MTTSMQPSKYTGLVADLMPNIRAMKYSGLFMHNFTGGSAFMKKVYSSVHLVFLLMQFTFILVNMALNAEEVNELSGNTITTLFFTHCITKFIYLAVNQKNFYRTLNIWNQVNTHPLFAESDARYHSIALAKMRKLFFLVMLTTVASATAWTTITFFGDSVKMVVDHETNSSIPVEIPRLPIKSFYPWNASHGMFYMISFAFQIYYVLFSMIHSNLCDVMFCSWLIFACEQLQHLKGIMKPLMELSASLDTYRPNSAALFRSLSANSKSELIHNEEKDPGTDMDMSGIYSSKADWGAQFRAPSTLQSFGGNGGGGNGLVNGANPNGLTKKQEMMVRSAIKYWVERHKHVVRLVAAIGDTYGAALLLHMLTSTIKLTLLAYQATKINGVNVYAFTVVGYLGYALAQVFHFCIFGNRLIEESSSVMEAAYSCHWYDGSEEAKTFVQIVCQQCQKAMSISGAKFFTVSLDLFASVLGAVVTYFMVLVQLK
Experimental: (§1) Full-length cDNAs for mosquito (Anopheles gambiae) odorant receptor (OR1, OR2, OR7, OR8, OR28), and fly (Drosophila melanogaster) odorant receptor (Or47a, Or83b), mouse TRP channel (TRPM8), and mouse serotonin receptor (5HT3) were obtained and subcloned into mammalian expression vectors. The following mammalian expression vectors were used:
(§2) Stable cell lines Or47a/Or83b and 5HT3 were generated from Flip-In T-Rex cells. Flip-In T-Rex-based cell lines were cultured in DMEM supplemented with these additional antibiotics: 6 μg/mL blasticidin and 100 μg/mL hygromycin.
(§3) Cells were trypsinized and split into 35 mm dishes 1 day before transfection. Confluent cells (60-70%) in 35 mm dishes were co-transfected with 1 μg of Or47a/Or83b plasmid in pcDNA5/FRT/TO/IRES plus the pOG44 plasmid or 1 μg of 5HT3 plasmid in pcDNA5/FRT/TO plus the pOG44 plasmid using lipofectamine 2000. Co-transfection of pOG44 and pcDNA5/FRT/TO/IRES or pcDNA5/FRT/TO allows expression of Flp recombinase and integration of the pcDNA5 plasmid into the genome via the FRT site. After one day of incubation, the transfected cells were transferred into 10 cm dishes with DMEM containing antibiotics: 20 μg/mL of hygromycin and 6 μg/mL of blasticidin. The concentration of Hygromycin was increased to 100 μg/mL when the population of cells became 30-40% confluent. The cells were cultured by changing medium every two days until cell clumps appeared. The clumps were picked and transferred into 96 well plates with DMEM containing 100 μg/mL of Hygromycin and 6 μg/mL of blasticidin. The cells were grown and transferred to 24 well plates, and ligand-evoked calcium increases were tested using the Hamamatsu FDSS6000 real time fluorescence plate reader.
(§4) Stable cell lines were cultured in 10 cm dishes, and confluent cells (70-80%) were trypsinized. 10,000 cells/20 μL were transferred into each well of 384-well plates coated with poly-D-lysine, and cultured for 2 days. For Flip-In T-Rex cells (cell lines expressing Or47a/Or83b and 5HT3), 5 μL of tetracycline (5 μg/mL) were added 1 day before the assay. 20 μL of Ca-4 dye was loaded into each well for 1.5 hr at room temperature in the dark, and the dye-loaded plates were subjected to Ca^2+-imaging using a Hamamatsu FDSS6000 real time fluorescence plate reader. Odorant solutions (9× final concentration) were prepared by dissolving 1M stock solutions into Hank's Buffered Salt Solution (HBSS), and 30 μL of odor solution was transferred to each well in 384-well plates.
(§5) Compounds ([…] in DMSO) were stored in 384-well plates, and last two columns (32 wells total) contained only DMSO. 200 nL of small compounds were transferred into the odorant plates before the assay using the Perkin-Elmer Janus workstation. The odorant plates were spun down to remove air bubbles, and placed on the FDSS6000 plate loader, and 5 μL of odorant solution was applied to the cell plate on the FDSS6000. Ca^2+ increase was monitored with fluorescence at 525 nm by excitation at 485 nm.

[1] = molecular target: T2, serotonin receptor (5HT3) (Mus musculus, UniProt P23979); assay: Ca2+-imaging of stable Flip-In T-Rex cell line 5HT3; assay type: cell-based; conditions: for inhibition at 4 µM: compound applied at 4 μM, read-out: Percent Inhibition 5HT3; for IC50: read-out: IC50 5HT3
T2 construct: Full-length cDNAs for mosquito (Anopheles gambiae) odorant receptor; expressed in transfected cells
T2 sequence (P23979 24-489): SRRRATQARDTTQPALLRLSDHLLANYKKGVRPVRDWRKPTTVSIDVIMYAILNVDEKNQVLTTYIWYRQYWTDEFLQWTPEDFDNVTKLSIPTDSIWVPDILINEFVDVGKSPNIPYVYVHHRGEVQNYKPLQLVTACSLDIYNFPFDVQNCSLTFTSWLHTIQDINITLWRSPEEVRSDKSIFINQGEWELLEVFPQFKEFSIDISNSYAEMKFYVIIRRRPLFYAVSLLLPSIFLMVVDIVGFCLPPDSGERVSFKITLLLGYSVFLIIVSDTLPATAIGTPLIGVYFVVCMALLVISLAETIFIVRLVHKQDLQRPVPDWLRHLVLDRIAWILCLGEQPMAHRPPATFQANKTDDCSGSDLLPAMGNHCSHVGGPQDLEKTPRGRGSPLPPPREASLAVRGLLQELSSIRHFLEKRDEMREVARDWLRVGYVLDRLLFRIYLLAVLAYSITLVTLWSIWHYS
Experimental: as §1, §2, §3, §4, §5

[2] = ligand pentyl acetate 30 μM, read-out: IC50 OR47a OR83b

SMILES | IC50 (Or47a/Or83b; Table B, read-out: IC50 OR47a) [µM] | inhibition at 4 µM (Or47a/Or83b) [%] | inhibition at 4 µM [1] [%] | IC50 (Or47a/Or83b; [2]) [µM] | IC50 ([1]; ligand serotonin 10 μM) [µM] | IC50 ([1]; Table B) [µM]
CCOC(=O)C1CCCN(C(=O)c2csc(CSc3nnc(-c4cccc(OC)c4)n3-c3ccc(C)cc3)n2)C1 (centres unmarked) [RU-0071628] | > 1 | 51 to 74 | 26 to 50 | – | – | –
O=C(c1nccn1Cc1c(F)cccc1Cl)N(CC1CCCC1)C1CC1 [RU-I3] | – | – | – | < 2 | 2 to 20 | –
CC(C)N(Cc1nccn1Cc1c(F)cccc1Cl)C(=O)c1ccc(Cl)cc1 [RU-0055364] | – | 26 to 50 | < 25 | – | – | –
Fc1ccccc1/C=N/Nc1nc(N2CCCCC2)nc(N2CCOCC2)n1 [RU-0018338] | < 0.1 | 51 to 74 | 26 to 50 | – | – | –
C=CCN(Cc1nccn1Cc1ccccc1F)C(=O)c1cccc(F)c1 [RU-0058232] | – | 26 to 50 | 51 to 74 | – | – | > 1
COc1cccc(-c2nnc(SCCCC(=O)N3CCN(C(=O)CC(C)(C)C)C(C)C3)n2-c2ccc(C)cc2)c1 (centres unmarked) [RU-0071818] | – | 26 to 50 | < 25 | – | – | –
COCCCN(Cc1c(-c2ccccc2)noc1N1CCC(C)CC1)C(=O)c1ccccc1F [RU-0036876] | > 1 | 51 to 74 | 26 to 50 | – | – | –
Cc1cc(C)c(Cn2ccnc2CN(C(=O)c2ccccc2F)C(C)C)c(C)c1 [RU-0048001] | > 1 | 51 to 74 | < 25 | – | – | –
C=CCN(Cc1nccn1Cc1cccc(F)c1)C(=O)c1ccccc1F [RU-I1] | – | – | – | > 20 | 20 to 50 | –
